Test results: patent US7507281B2, “Antimicrobial cementitious composition, method and article” (Microban Products Company, priority 2005, dated 2009)

Tests used:
[1] = system: K. pneumoniae; assay: Zone of inhibition of fresh cured BAL grout discs, K. pneumoniae (Example 1); type: cell-based; conditions: Klebsiella pneumoniae
[2] = system: S. aureus; assay: Zone of inhibition of fresh cured BAL grout discs, S. aureus (Example 1); type: cell-based; conditions: Staphylococcus aureus
[3] = system: Aspergillus niger; assay: AATCC 30 Part III antifungal test of grout discs after QUV/Xenon exposure and water-spray neutralization (Example 2); type: cell-based; conditions: for Growth A. niger: weathered and pH-neutralized, 168-hour incubation, sulfate
Description: Grout samples were prepared and cured as in Example 1, with antimicrobial agent admixed into the dry compound at levels of 0 ppm, 1000 ppm, and 2000 ppm based upon the total weight of the dry mix and antimicrobial agent (excluding water). Water was added, the slurry mixed, and 1.5-inch diameter pucks cast.
After air-curing, the samples were exposed for eight hours in either of QUV/Spray Accelerated Weathering Controller or Xenon Testing Chamber Xe-3HS (both by Q-Panel Lab Products, Cleveland, Ohio). The QUV exposure is an assay well known in the art for simulating aging, discoloration and/or degradation caused by conditions of ultraviolet radiation exposure, such as would be encountered in an outdoor application.
Thereafter, the sample discs were subjected to one hour of water spray, followed by one hour of condensation, alternatingly repeated for a total of eight hours. This treatment neutralizes the pH of the grout samples, simulating brief real-world exposure of the grout articles to, e.g., a shower stall application.
Samples then were plated against Aspergillus niger using the 30 Part III test. At the end of the 168-hour incubation period, the test plates were removed from the test chamber and the samples were evaluated for fungal attack and encroachment. The antimicrobial agent tested and the results of the evaluation are shown in Table 2; control and experimental plates are shown in FIGS. 1-3.

[4] = Thermal stability; type: physicochemical
Description: This species also appears to be thermally stable up to 160° C. and above. Thermal stability makes imazalil agent especially well-suited for inclusion in the production of cementitious powder by various manufacturers, as these powders are typically dried and packed at elevated temperatures. Many other antimicrobial/antifungal agents tend to discolor and clump when so thermally exposed.

[5] = UV stability / discoloration under ultraviolet irradiation; type: physicochemical; conditions: UVA 340 lamps, 168 hrs
Description: Resistance to ultraviolet radiation and discoloring is advantageous given the typical outdoor environment of cured cementitious articles.

[6] = 1000 ppm imazalil sulfate in BAL grout disc, fresh cured
[7] = 2000 ppm imazalil sulfate in BAL grout disc, fresh cured

C=CCOC(Cn1ccnc1)c1ccc(Cl)cc1Cl.O=S(=O)(O)O (racemic) [Imazalil Sulfate, (±)-1-[2-(2,4-dichlorophenyl)-2-(2-propenyloxy)ethyl]-1H-imidazole sulfate]
zone of inhibition at 500 ppm ([1]; BAL, read-out: Zone of Inhibition, mm K. pneumoniae): 5 mm | zone of inhibition at 1000 ppm [1, 6]: 5 mm | zone of inhibition at 2000 ppm [1, 7]: 5 mm | zone of inhibition at 500 ppm ([2]; BAL, read-out: Zone of Inhibition, mm S. aureus): 5 mm | zone of inhibition at 1000 ppm [2, 6]: 6 mm | zone of inhibition at 2000 ppm [2, 7]: 6 mm | Growth A. niger ([3]; 1000 ppm imazalil sulfate in grout disc): no growth | Growth A. niger ([3]; 2000 ppm imazalil sulfate in grout disc): no growth

C=CCOC(Cn1ccnc1)c1ccc(Cl)cc1Cl (racemic) [imazalil agent, (±)-1-[2-(2,4-dichlorophenyl)-2-(2-propenyloxy)ethyl]-1H-imidazole]
Resistance of grout puck to fungal attack (FIG. 2) ([3]; 1000 ppm imazalil agent in BAL grout, Aspergillus niger): strong resistance to fungal attack | Disruption to fungal encroachment by grout sample (FIG. 3) ([3]; 2000 ppm imazalil agent in BAL grout, Aspergillus niger): significant disruption to fungal encroachment | Thermally stable up to [4]: ≥ 160 °C | Discoloration after prolonged exposure to ultraviolet irradiation [5]: no discoloration
